Data from ChEMBL document CHEMBL2074075, “Functional assay of multidrug resistant cells using JC-1, a carbocyanine fluorescent probe” (Leukemia, 1997).

Experiments:
[1] = target: T1, ATP-dependent translocase ABCB1 (Homo sapiens, UniProt P08183); assay: TP_TRANSPORTER: inhibition of JC-1 uptake (JC-1: ca 0.1 uM, S9788: 5 uM) in K562 and K562/ADR cells, flow cytometry; format: functional, cell-based
[2] = target: T1, ATP-dependent translocase ABCB1; assay: TP_TRANSPORTER: spectrofluorimetric analysis (intracellular accumulation) in K562 and K562/ADR cells; format: functional, cell-based

T1 sequence (P08183 whole entry): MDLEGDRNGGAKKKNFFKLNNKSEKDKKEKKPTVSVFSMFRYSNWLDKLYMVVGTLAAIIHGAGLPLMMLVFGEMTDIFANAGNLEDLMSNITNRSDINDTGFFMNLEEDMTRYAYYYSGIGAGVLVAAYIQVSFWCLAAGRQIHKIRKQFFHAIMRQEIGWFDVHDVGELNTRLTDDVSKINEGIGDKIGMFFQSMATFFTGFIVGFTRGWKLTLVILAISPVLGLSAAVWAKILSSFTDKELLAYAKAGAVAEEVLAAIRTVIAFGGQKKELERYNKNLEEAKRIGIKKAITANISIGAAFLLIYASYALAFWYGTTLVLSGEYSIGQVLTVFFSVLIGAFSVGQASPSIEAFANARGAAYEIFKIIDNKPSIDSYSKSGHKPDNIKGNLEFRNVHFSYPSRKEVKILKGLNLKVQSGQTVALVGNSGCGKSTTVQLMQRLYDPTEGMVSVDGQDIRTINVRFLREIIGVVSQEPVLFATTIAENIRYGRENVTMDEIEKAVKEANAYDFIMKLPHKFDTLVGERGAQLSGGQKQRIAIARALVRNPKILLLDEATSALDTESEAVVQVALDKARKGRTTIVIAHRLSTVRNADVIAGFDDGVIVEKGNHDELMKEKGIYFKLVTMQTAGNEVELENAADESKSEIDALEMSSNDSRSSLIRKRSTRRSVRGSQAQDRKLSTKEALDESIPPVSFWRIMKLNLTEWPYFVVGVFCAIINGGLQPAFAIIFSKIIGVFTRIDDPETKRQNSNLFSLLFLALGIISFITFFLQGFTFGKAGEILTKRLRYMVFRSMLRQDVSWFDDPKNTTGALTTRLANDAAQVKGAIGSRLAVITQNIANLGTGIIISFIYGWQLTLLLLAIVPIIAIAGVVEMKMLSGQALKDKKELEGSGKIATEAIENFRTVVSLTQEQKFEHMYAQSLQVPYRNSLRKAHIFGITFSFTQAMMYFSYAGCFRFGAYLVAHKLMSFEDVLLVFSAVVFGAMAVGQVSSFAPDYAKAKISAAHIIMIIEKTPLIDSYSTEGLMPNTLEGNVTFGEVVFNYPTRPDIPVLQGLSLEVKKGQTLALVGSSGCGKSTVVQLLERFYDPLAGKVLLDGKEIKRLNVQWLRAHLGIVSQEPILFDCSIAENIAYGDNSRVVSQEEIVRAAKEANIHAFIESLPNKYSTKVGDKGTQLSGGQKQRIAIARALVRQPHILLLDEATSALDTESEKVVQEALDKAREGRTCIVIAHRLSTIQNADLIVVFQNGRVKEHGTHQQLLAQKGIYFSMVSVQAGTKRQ

| Activity [1] | Activity [2] | SMILES |
| --- | --- | --- |
| inhibitor [+] | – | C=CCNc1nc(NCC=C)nc(N2CCC(NCC(c3ccc(F)cc3)c3ccc(F)cc3)CC2)n1 |
| – | substrate [+] | CCN1C(=C/C=C/c2n(CC)c3cc(Cl)c(Cl)cc3[n+]2CC)N(CC)c2cc(Cl)c(Cl)cc21.[I-] |
